Measurements taken from patent publication US9938265B2, “1,3,4-thiadiazole compounds and their use in treating cancer” (AstraZeneca AB, priority 2015, dated 2018).
Like-named read-outs stand apart in the source and are kept apart here.

How the values were obtained:
cellular GLS activity = cellular GLS activity (Homo sapiens (Human), UniProt O94925); test: GLS Cell Potency Assay (PC3 coupled assay measuring cellular glutamate depletion); assay type: cell-based; details: PC3 cells, 6 h incubation, glutamate depletion; read-out: Assay b) GLS cell MOA Mean IC50
cellular GLS activity, sequence (O94925 73-669): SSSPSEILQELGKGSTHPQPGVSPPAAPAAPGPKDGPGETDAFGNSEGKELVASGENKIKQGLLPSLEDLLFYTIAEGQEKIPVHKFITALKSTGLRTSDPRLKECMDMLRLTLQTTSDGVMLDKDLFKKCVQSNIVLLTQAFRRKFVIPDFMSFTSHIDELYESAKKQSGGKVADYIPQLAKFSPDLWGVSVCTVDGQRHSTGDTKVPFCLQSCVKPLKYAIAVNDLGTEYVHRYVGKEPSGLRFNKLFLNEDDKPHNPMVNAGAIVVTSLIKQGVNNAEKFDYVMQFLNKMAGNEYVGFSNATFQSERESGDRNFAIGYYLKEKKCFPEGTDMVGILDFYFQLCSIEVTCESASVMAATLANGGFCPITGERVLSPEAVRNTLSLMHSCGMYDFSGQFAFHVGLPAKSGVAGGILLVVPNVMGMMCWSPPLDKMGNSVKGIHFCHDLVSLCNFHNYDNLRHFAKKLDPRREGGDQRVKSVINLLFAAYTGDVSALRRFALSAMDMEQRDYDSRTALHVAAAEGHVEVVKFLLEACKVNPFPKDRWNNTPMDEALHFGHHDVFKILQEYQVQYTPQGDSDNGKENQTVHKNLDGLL
Excerpt: (§1) The following assays were used to measure the effects of the compounds described herein: a) GLS Enzyme Potency Assay; b) GLS Cell Potency Assay; c) GLS Cell Proliferation Assay. During the description of the assays, generally: • i. The following abbreviations have been used: CO2=Carbon dioxide; DMEM=Dulbecco's Modified Eagle Medium; DMSO=Dimethyl sulphoxide; EDTA=Ethylenediaminetetraacetic acid; EGTA=Ethylene glycol tetraacetic acid; FCS=Foetal calf serum; h=Hour(s); NBS=Non-binding surface; SDS=Sodium dodecyl sulphate; TRIS=Tris(Hydroxymethyl)aminomethane. • ii. IC50 values were calculated using a smart fitting model in Genedata.
Assay b): GLS Cell Potency Assay
Compounds were assessed for their potential to inhibit cellular GLS activity by use of a PC3 coupled assay measuring cellular glutamate depletion. […] DMSO concentration was maintained at 0.3% by back filling with DMSO solution. PC3 cells were grown in phenol free DMEM, 10% dialyzed FCS, 2 mM glutamine and following dispersal by trypsinisation were plated at 5.6×10^3 cells per well in 40 μl of growth medium directly into the 384 well assay plates containing dispensed compound. After incubation for 6 h at 37° C., 5% CO2 growth media was aspirated and cells lysed in 15 μl of buffer containing 10 mM TRIS pH7.4, 100 mM NaCl, 1 mM EDTA, 1 mM EGTA, 1 mM NaF, 20 mM Na4P2O7, 2 mM Na3VO4, 1% Triton X-100, 10% glycerol, 0.1% SDS and 0.5% deoxycholate.

NCI-H1703 cells = test: GLS Cell Proliferation Assay (NCI-H1703 cell proliferation); assay type: cell-based
Excerpt: as §1
Assay c): GLS Cell Proliferation Assay
The ability of compounds to inhibit cell growth was measured using a 384 well plate NCI-H1703 cell proliferation assay. NCI-H1703 cells were grown in phenol red free RPMI1640, 10% FCS and 2 mM glutamine and seeded at a density of 750 cells per well in 40 μl of growth medium into clear-bottom 384 well assay plates (Corning product code 3712) and incubated for 24 h at 37° C., 5% CO2. Test compounds were prepared by dilution in 100% DMSO to give the correct dose range for 12 point concentration response and an appropriate volume (5-120 nl) dispensed directly into the assay plates containing plated cells. DMSO concentration was maintained at 0.3% by back filling with DMSO solution. Plates were incubated for 5 days at 37° C., 5% CO2, Sytox Green and Saponin added to final concentration of 2 μM and 0.25% respectively and incubated for 6 h prior to analysis. Plates were read on an Acumen eX3 (TTP Labtech) using 488 nm excitation and FITC filter set (500-530 nm) for emission. IC50 values were calculated by curve fitting to max inhibition of day zero growth using GeneData software analysis.

GLS1 = GLS1 (Homo sapiens (Human), UniProt O94925); test: GLS Enzyme Potency Assay (Glutamate Oxidase/AmplexRed coupled assay); assay type: biochemical
GLS1, sequence (O94925 63-669): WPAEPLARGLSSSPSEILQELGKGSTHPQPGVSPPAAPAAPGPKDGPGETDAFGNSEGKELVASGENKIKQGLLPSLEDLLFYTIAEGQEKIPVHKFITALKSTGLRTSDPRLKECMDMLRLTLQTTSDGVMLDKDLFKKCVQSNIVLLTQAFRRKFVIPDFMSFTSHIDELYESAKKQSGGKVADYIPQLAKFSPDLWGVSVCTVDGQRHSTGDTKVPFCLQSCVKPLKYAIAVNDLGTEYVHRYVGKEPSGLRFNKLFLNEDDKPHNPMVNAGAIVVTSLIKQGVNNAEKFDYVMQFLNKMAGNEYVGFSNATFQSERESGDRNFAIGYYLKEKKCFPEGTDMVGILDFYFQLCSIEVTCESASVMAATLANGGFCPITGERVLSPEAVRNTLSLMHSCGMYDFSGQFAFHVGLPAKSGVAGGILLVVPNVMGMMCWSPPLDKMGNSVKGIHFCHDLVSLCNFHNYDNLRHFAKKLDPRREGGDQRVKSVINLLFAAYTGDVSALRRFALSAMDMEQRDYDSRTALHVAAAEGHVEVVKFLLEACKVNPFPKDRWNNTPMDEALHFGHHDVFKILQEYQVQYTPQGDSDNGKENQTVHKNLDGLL
Excerpt: as §1
Assay a): GLS Enzyme Potency Assay
A Glutamate Oxidase/AmplexRed coupled assay was used to measure the ability of compounds to bind to and inhibit the activity of GLS1 in vitro. […] GLS1 was diluted to 2× working concentration and incubated at room temperature to allow the tetrameric/dimeric forms to reach steady state. Assay measurements were performed in buffer comprising 50 mM TRIS pH 7.8, 100 mM NaPO4, pH 7.8, 0.001% v/v Tween20. Purified recombinant GLS1 protein was diluted in assay buffer to 12 nM and pre-incubated at room temperature for 30 minutes. […] DMSO concentration was maintained at 2% by back filling with DMSO solution. 3 μL of diluted GLS1 protein (12 nM) was then dispensed into each well using a BioRaptr automated dispenser (Beckman-Coulter) and incubated for 15 minutes at room temperature. 3 μL of 100 mM glutamine diluted in assay buffer was then added and the reaction incubated at room temperature for 60 minutes. […] An artefact version of the assay where the 6His tagged GLS protein and glutamine were replaced with assay buffer was also used to rule out non specific effects on the assay components.

[1] = NCI-H1703 cells, 5 days; read-out: Assay c) Prolif Mean IC50
[2] = 6His tagged GLS protein (amino acids 63-669), glutamine substrate; read-out: Assay a) enz IC50
[3] = Homo sapiens, NCI-H1703, 120 h, NCI-H1703 cells, 5 days; read-out: Assay c) Prolif Mean IC50

| IC50 (cellular GLS activity) [nM] | IC50 (NCI-H1703 cells; [1]) [nM] | IC50 (GLS1; [2]) [nM] | IC50 (NCI-H1703 cells; [3]) [nM] | IC50 (GLS1; read-out: Assay a) enz IC50) [nM] | Structure (SMILES) |
| --- | --- | --- | --- | --- | --- |
| 4.7 | 71.9 | 55.7 | – | – | COC(C(=O)Nc1nnc(N[C@@H]2CCN(c3ccc(F)nn3)C2)s1)c1ccc(F)cc1 (single isomer, unassigned) [Example 19] |
| – | 1210 | – | – | – | CO[C@H](C(=O)Nc1nnc(N[C@@H]2CCN(c3cc(C)cnn3)C2)s1)c1ccc(F)cc1 (single isomer, unassigned) [Example 10(a)] |
| 1.04 | – | 44.3 | 22.7 | – | CO[C@H](C(=O)Nc1nnc(N[C@@H]2CCN(c3ccc(C)nn3)C2)s1)c1ccccc1 [Example 14, (2S)-2-methoxy-N-[5-[[(3R)-1-(6-methylpyridazin-3-yl)pyrrolidin-3-yl]amino]-1,3,4-thiadiazol-2-yl]-2-phenyl-acetamide] |
| 2.12 | 21.9 | 94.8 | – | – | CCOC(C(=O)Nc1nnc(N[C@@H]2CCN(c3ccc(F)nn3)C2)s1)c1ccc(F)cc1 (single isomer, unassigned) [Example 26] |
| 1.01 | 11.6 | 71.3 | – | – | COc1cc(C(OC)C(=O)Nc2nnc(N[C@@H]3CCN(c4ccc(F)nn4)C3)s2)ccc1F (single isomer, unassigned) [Example 24] |
| 43.1 | 389 | – | – | 290 | CCO[C@H](C(=O)Nc1nnc(N[C@@H]2CCN(c3ccc(C)nn3)C2)s1)c1cccc(OC)c1 (single isomer, unassigned) [4(b)] |
| 0.556 | 3.08 | 95.2 | – | – | CO[C@H](C(=O)Nc1nnc(N[C@@H]2CCN(c3ccc(C)nn3)C2)s1)c1cccc(OC(F)(F)F)c1 (single isomer, unassigned) [Example 7(a)] |
| 3.57 | 73.2 | 96 | – | – | CCOC(C(=O)Nc1nnc(N[C@@H]2CCN(c3ccc(C)nn3)C2)s1)c1ccc(F)cc1 (single isomer, unassigned) [Example 28] |
| 5.29 | 43.7 | 119 | – | – | COc1ccc(C(OC)C(=O)Nc2nnc(N[C@@H]3CCN(c4ccc(C)nn4)C3)s2)cc1 (stereo partly drawn) [Example 30, 2-methoxy-2-(4-methoxyphenyl)-N-[5-[[(3R)-1-(6-methylpyridazin-3-yl)pyrrolidin-3-yl]amino]-1,3,4-thiadiazol-2-yl]acetamide] |
| 0.451 | – | 35.3 | 3.07 | – | CO[C@H](C(=O)Nc1nnc(N[C@@H]2CCN(c3cc(Cl)cnn3)C2)s1)c1ccccc1 [Example 12, (2S)-N-[5-[[(3R)-1-(5-Chloropyridazin-3-yl)pyrrolidin-3-yl]amino]-1,3,4-thiadiazol-2-yl]-2-methoxy-2-phenyl-acetamide] |
| – | 54.4 | 15.9 | – | – | COc1ccc([C@H](OC)C(=O)Nc2nnc(N[C@@H]3CCN(c4cc(Cl)cnn4)C3)s2)cc1 (single isomer, unassigned) [Example 11(a)] |
| 72.2 | 1220 | 2380 | – | – | CCOC(C(=O)Nc1nnc(N[C@@H]2CCN(c3ccc(C)nn3)C2)s1)c1ccc(F)cc1 (single isomer, unassigned) [Example 27] |
| 0.658 | – | 59.2 | 8.48 | – | CO[C@H](C(=O)Nc1nnc(N[C@@H]2CCN(c3cc(C)cnn3)C2)s1)c1ccccc1 [Example 13, (2S)-2-Methoxy-N-[5-[[(3R)-1-(5-methylpyridazin-3-yl)pyrrolidin-3-yl]amino]-1,3,4-thiadiazol-2-yl]-2-phenyl-acetamide] |
| 0.965 | – | 30.3 | 16.7 | – | CO[C@H](C(=O)Nc1nnc(N[C@@H]2CCN(c3ccc(F)nn3)C2)s1)c1ccccc1 [Example 2, (2S)-N-[5-[[(3R)-1-(6-Fluoropyridazin-3-yl)pyrrolidin-3-yl]amino]-1,3,4-thiadiazol-2-yl]-2-methoxy-2-phenyl-acetamide] |
| 1.3 | 5.48 | 99.4 | – | – | CO[C@H](C(=O)Nc1nnc(N[C@@H]2CCN(c3ccc(C)nn3)C2)s1)c1cccc(OC(F)F)c1 (single isomer, unassigned) [8(a)] |
| 2.78 | 44.1 | 155 | – | – | CO[C@H](C(=O)Nc1nnc(N[C@@H]2CCN(c3ccc(C)nn3)C2)s1)c1ccc(F)cc1 (single isomer, unassigned) [Example 5(a)] |
| – | 586 | 1280 | – | – | COc1ccc(C(OC)C(=O)Nc2nnc(N[C@@H]3CCN(c4ccc(C)nn4)C3)s2)cc1 (stereo partly drawn) [Example 29, 2-methoxy-2-(4-methoxyphenyl)-N-[5-[[(3R)-1-(6-methylpyridazin-3-yl)pyrrolidin-3-yl]amino]-1,3,4-thiadiazol-2-yl]acetamide] |
| 34.8 | 567 | 277 | – | – | CCOC(C(=O)Nc1nnc(N[C@@H]2CCN(c3ccc(C)nn3)C2)s1)c1ccc(OC)cc1 (single isomer, unassigned) [Example 15] |
| – | 926 | – | – | – | COc1cc([C@H](OC)C(=O)Nc2nnc(N[C@@H]3CCN(c4ccc(C)nn4)C3)s2)ccc1F (single isomer, unassigned) [6(b)] |
| 79.5 | 1270 | 323 | – | – | COC(C(=O)Nc1nnc(N[C@@H]2CCN(c3ccc(F)nn3)C2)s1)c1ccc(F)cc1 (single isomer, unassigned) [Example 20] |
| 137 | 454 | – | – | 406 | COc1cccc([C@H](OC)C(=O)Nc2nnc(N[C@@H]3CCN(c4ccc(C)nn4)C3)s2)c1 (single isomer, unassigned) [Example 1(b)] |
| 2.74 | 55 | 80.9 | – | – | CCOC(C(=O)Nc1nnc(N[C@@H]2CCN(c3ccc(C)nn3)C2)s1)c1ccc(OC)cc1 (single isomer, unassigned) [Example 16] |
| – | – | – | 469 | – | CO[C@@H](C(=O)Nc1nnc(N[C@@H]2CCN(c3ccc(F)nn3)C2)s1)c1cccc(OC(F)F)c1 [9(b), (2R)-2-[3-(difluoromethoxy)phenyl]-N-[5-[[(3R)-1-(6-fluoropyridazin-3-yl)pyrrolidin-3-yl]amino]-1,3,4-thiadiazol-2-yl]-2-methoxy-acetamide] |
| – | 1020 | – | – | 975 | CO[C@H](C(=O)Nc1nnc(N[C@@H]2CCN(c3ccc(C)nn3)C2)s1)c1ccc(F)cc1 (single isomer, unassigned) [5(b)] |
| – | – | – | 3.09 | – | CO[C@H](C(=O)Nc1nnc(N[C@@H]2CCN(c3ccc(F)nn3)C2)s1)c1cccc(OC(F)F)c1 [Example 9(a), (2S)-2-[3-(difluoromethoxy)phenyl]-N-[5-[[(3R)-1-(6-fluoropyridazin-3-yl)pyrrolidin-3-yl]amino]-1,3,4-thiadiazol-2-yl]-2-methoxy-acetamide] |
| – | 20.9 | – | – | – | COc1cc([C@H](OC)C(=O)Nc2nnc(N[C@@H]3CCN(c4ccc(C)nn4)C3)s2)ccc1F (single isomer, unassigned) [Example 6(a)] |
| – | 204 | – | – | – | CO[C@H](C(=O)Nc1nnc(N[C@@H]2CCN(c3cc(C)cnn3)C2)s1)c1ccc(F)cc1 (single isomer, unassigned) [10(b)] |
| – | – | – | 3.62 | – | COc1cccc([C@H](OC)C(=O)Nc2nnc(N[C@@H]3CCN(c4ccc(F)nn4)C3)s2)c1 [Example 3, (2S)-N-[5-[[(3R)-1-(6-Fluoropyridazin-3-yl)pyrrolidin-3-yl]amino]-1,3,4-thiadiazol-2-yl]-2-methoxy-2-(3-methoxyphenyl)acetamide] |
